The text below walks through data of PubChem BioAssay (NCI).

Test systems include IGROV1 ovarian; RPMI-8226 leukemia; UO-31 renal; SK-MEL-2 melanoma; T-47D breast; COLO 205 colon; 786-0 renal; SR leukemia; CAKI-1 renal; MDA-MB-435.
Test in all cases: growth of human tumour cells (NCI), 48 h

Several values for one entry are separate records, joined by “and”; a condition that tells them apart may be missing. Equal entries are not always repeated.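 Step 1: Grow cells in 96-well plates. Step 2: Expose to compound for 48 hours at 5 concentrations. Step 3: Interpolate endpoints linearly; if unreached, use highest concentration. GI50 = concentration required for 50% inhibition of growth. TGI: total growth inhibition.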

`CCCCCCCC(=O)OC[n+]1cccc(-c2c(COC(=O)NC(C)C)c(COC(=O)NC(C)C)c3n2CCC3)c1`: the TGI in the assay with IGROV1 ovarian, in the assay with RPMI-8226 leukemia, with UO-31 renal, in the assay on SK-MEL-2 melanoma, in the assay on T-47D breast and in the assay with COLO 205 colon was over 100 µM in each case. The TGI in the assay with 786-0 renal was over 100 µM; in the assay on SR leukemia it was over 100 µM; in the assay with CAKI-1 renal, over 87.5 µM; in the assay on MDA-MB-435, over 100 µM.
In the case of `O=C(/C=C/c1ccccn1)c1ccccc1`, the GI50 is 3.84 µM in the assay with IGROV1 ovarian; 2.37 µM in the assay on RPMI-8226 leukemia; 12.2 µM in the assay on UO-31 renal; 8.32 µM with SK-MEL-2 melanoma; 4.87 µM with T-47D breast; 4.04 µM in the assay with COLO 205 colon. Moreover, the GI50 with 786-0 renal was 2.84 µM; in the assay with SR leukemia, 1.96 µM; in the assay on CAKI-1 renal, 3.28 µM; in the assay on MDA-MB-435 it was 7.85 µM. In addition, the TGI amounted to 85.3 µM with IGROV1 ovarian; 6.6 µM in the assay on RPMI-8226 leukemia; 29.9 µM with UO-31 renal; 21 µM with SK-MEL-2 melanoma; 24.4 µM with T-47D breast; 14.6 µM in the assay on COLO 205 colon. Further, the TGI with 786-0 renal is 10.7 µM; in the assay on SR leukemia, 14.1 µM; in the assay on CAKI-1 renal, 12.3 µM; in the assay with MDA-MB-435 it was 24.9 µM.
As for `COc1ccccc1CNCCCN1C(=O)c2ccc3c4c(ccc(c24)C1=O)C(=O)N(CCCNCCCCN)C3=O`, the GI50 in the assay on IGROV1 ovarian was 0.464 µM; in the assay on RPMI-8226 leukemia, 0.445 µM; in the assay with UO-31 renal, 1.95 µM; in the assay with SK-MEL-2 melanoma it was 0.233 µM; with T-47D breast it was 0.573 µM; in the assay with COLO 205 colon, 0.125 µM. Also, the GI50 with 786-0 renal is 0.616 µM; with SR leukemia it was 0.0928 µM; with CAKI-1 renal it was 3.31 µM; in the assay on MDA-MB-435, 0.184 µM. The TGI in the assay on IGROV1 ovarian stood at 15.9 µM; in the assay with RPMI-8226 leukemia it was 6.13 µM; in the assay on UO-31 renal, 9.92 µM; with SK-MEL-2 melanoma, 0.49 µM; with T-47D breast, 2.4 µM; with COLO 205 colon, 0.263 µM. Also, the TGI is 3.67 µM in the assay on 786-0 renal, 0.82 µM with SR leukemia, over 42.4 µM in the assay on CAKI-1 renal and 0.397 µM in the assay with MDA-MB-435.
Turning to `COc1ccc2cc1Oc1ccc(cc1)CC1c3c(cc(OC)c4c3Oc3cc5c(cc3O4)CCNC5C2)CCN1C` (stereo unspecified), the GI50 was 1.47 µM in the assay on IGROV1 ovarian; 1.61 µM with RPMI-8226 leukemia; 1.67 µM in the assay on UO-31 renal; 2.19 µM in the assay with SK-MEL-2 melanoma; 1.75 µM in the assay on T-47D breast; 2.17 µM in the assay with 786-0 renal. Further, the results for the GI50 with CAKI-1 renal and in the assay with MDA-MB-435 were 1.67 µM and 1.56 µM, respectively. For the same molecule, the TGI is 3.41 µM and 2.82 µM in the assay with IGROV1 ovarian; 4.3 µM and 3.42 µM in the assay on RPMI-8226 leukemia; 30.7 µM and 3.13 µM in the assay on UO-31 renal; 3.49 µM and 3.85 µM in the assay on SK-MEL-2 melanoma; 3.53 µM in the assay on T-47D breast; 3.41 µM with COLO 205 colon. The TGI was 3.72 µM in the assay with 786-0 renal; 2.51 µM in the assay with SR leukemia; 5.77 µM and 3.62 µM in the assay with CAKI-1 renal; 3.43 µM and 2.9 µM in the assay with MDA-MB-435.
For `O=[N+]([O-])/C=C/c1cn(CCCCCCCCn2cc(/C=C/[N+](=O)[O-])c3ccccc32)c2ccccc12`, the TGI is over 10 µM with IGROV1 ovarian; 1.11 µM in the assay on RPMI-8226 leukemia; over 10 µM in the assay with UO-31 renal; over 10 µM in the assay with SK-MEL-2 melanoma; over 10 µM with T-47D breast; over 10 µM with COLO 205 colon. Also, the TGI with 786-0 renal, with SR leukemia, with CAKI-1 renal and in the assay with MDA-MB-435 was over 10 µM throughout.
For `O=[N+]([O-])/C(=C/C=C/c1ccccc1)c1ccccc1`, the GI50 in the assay on IGROV1 ovarian is 1.92 µM; in the assay with RPMI-8226 leukemia it was 0.118 µM; with UO-31 renal, 1.46 µM; in the assay on SK-MEL-2 melanoma, 1.67 µM; in the assay with T-47D breast, 2.07 µM; with COLO 205 colon, 1.83 µM. Further, the GI50 in the assay with 786-0 renal is 1.81 µM; with SR leukemia, 1.01 µM; in the assay on CAKI-1 renal, 0.805 µM; in the assay on MDA-MB-435 it was 2.12 µM. For the same molecule, the TGI is 4.54 µM with IGROV1 ovarian; 1.55 µM with RPMI-8226 leukemia; 3.19 µM with UO-31 renal; 3.93 µM with SK-MEL-2 melanoma; 5.28 µM with T-47D breast; 3.35 µM in the assay with COLO 205 colon. Moreover, the TGI was determined as 3.4 µM with 786-0 renal, 4.05 µM in the assay on SR leukemia, 3.06 µM with CAKI-1 renal and 4.92 µM with MDA-MB-435.
Consider `O=C(Nc1ccc(-n2cc(-c3ccncc3)c(-c3ccc(Cl)c(O)c3)n2)cc1)c1ccc(Cl)c(Cl)c1`, for which the GI50 is over 100 µM with IGROV1 ovarian; 0.736 µM in the assay on RPMI-8226 leukemia; 2.83 µM with UO-31 renal; 4.05 µM in the assay with SK-MEL-2 melanoma; 8.09 µM in the assay on T-47D breast; 4.3 µM with COLO 205 colon. Also, the GI50 in the assay with 786-0 renal is 1.78 µM; in the assay on SR leukemia, 3.6 µM; in the assay with CAKI-1 renal it was 3.67 µM; in the assay on MDA-MB-435 it was 2.73 µM. Besides, the TGI is over 100 µM in the assay on IGROV1 ovarian; 3.47 µM in the assay with RPMI-8226 leukemia; 8.62 µM in the assay with UO-31 renal; over 100 µM in the assay with SK-MEL-2 melanoma; over 100 µM with T-47D breast; over 100 µM in the assay on COLO 205 colon. The TGI in the assay on 786-0 renal was 4.3 µM; with SR leukemia, over 100 µM; in the assay on CAKI-1 renal it was 21.3 µM; with MDA-MB-435 it was over 100 µM.
As to `COc1ccc(-c2nc3sccn3c2/C=C/C(=O)c2cc(OC)c(OC)c(OC)c2)cc1`, the GI50 in the assay on IGROV1 ovarian is 1.24 µM; in the assay with RPMI-8226 leukemia, 2.24 µM; with UO-31 renal, 2.12 µM; in the assay on SK-MEL-2 melanoma, 3.58 µM; with T-47D breast, 1.86 µM; with COLO 205 colon, 2.82 µM. For the same molecule, the GI50 in the assay with 786-0 renal is 3.7 µM; in the assay with SR leukemia, 2.41 µM; with CAKI-1 renal, 2.02 µM; with MDA-MB-435 it was 2.85 µM. The TGI is 7.56 µM in the assay with RPMI-8226 leukemia; over 25.5 µM in the assay with UO-31 renal; over 26.3 µM in the assay with SK-MEL-2 melanoma; 8.28 µM in the assay on T-47D breast; 13 µM in the assay on COLO 205 colon; over 100 µM with 786-0 renal. Also, the TGI was over 28.2 µM in the assay with SR leukemia, over 100 µM in the assay with CAKI-1 renal and over 100 µM with MDA-MB-435.
As to `CSc1ccc2c(c1)N(CCCN(C)C)c1ccccc1S2`, the TGI in the assay on IGROV1 ovarian worked out at 28 µM; with RPMI-8226 leukemia, 28.5 µM; in the assay on SK-MEL-2 melanoma, 29.5 µM; in the assay with T-47D breast, 25.9 µM; in the assay with COLO 205 colon, 31.7 µM; with 786-0 renal, 28.5 µM. Also, the figures for the TGI in the assay on SR leukemia, in the assay with CAKI-1 renal and in the assay on MDA-MB-435 were 19.2 µM, 21.2 µM and 17 µM, respectively.
